Assay results reported in patent US20100130612A1, “COMPOSITION CONTAINING CHITOSAN FOR SUSTAINED DRUG RELEASE” (THE JORDANIAN PHARMACEUTICAL MANUFACTURING CO., priority 2005, published 2010).

Experiment: Solubility of acidic drugs in acidic media when combined with chitosan polymer solution
Format: physicochemical
Conditions: pH<5.0; combined with a respective chitosan polymer solution

With `CC(C)Cc1ccc(C(C)C(=O)O)cc1.[Na]` (centres unmarked) [ibuprofen sodium] the “solubility in acidic media (in words)” value was “soluble in acidic media”.

With `O=C(O)Cc1ccccc1Nc1c(Cl)cccc1Cl` [diclofenac sodium] the “solubility in acidic media (in words)” value was “soluble in acidic media”.
